The values below are quoted from earlier work in US12596089B2, “Devices, systems, and methods for antimicrobial susceptibility testing” (Avails Medical, Inc., priority 2022, dated 2026).

In data set [1] the test system is CDC-650 strain of E. coli. The settings on record: stated as known.
Data set [2] has as its system CDC-846 strain of E. coli. The settings on record: stated as known.

In the case of `CO/N=C(\C(=O)N[C@@H]1C(=O)N2C(C(=O)O)=C(CSc3nc(=O)c(=O)[nH]n3C)CS[C@H]12)c1csc(N)n1` [ceftriaxone], the figures for the “susceptibility of the bacteria to the anti-infective” value in data set [1] and in data set [2] were “highly susceptible” and “resistant”, respectively.
